US20210085711A1 (Japan Tobacco Inc., priority 2017, published 2021)
Where two headings read alike, the source gives them in different places.

Assays:
[1] = tested on: patients with hypermenorrhea and/or patients with hypermenorrhea-associated gynecologic diseases (iron-deficiency anemia patients); conditions: for Hb change, End of administration, Mean: change from baseline; for Williams test, Mean of change amount from the baseline at the end of administration, JTT-751-placebo: difference to placebo
Procedure: (§1) This test was a three-stage safety and efficacy clinical trial at multi-facilities. The first stage was a pre-observation period (Day −40 to Day −1), the second stage was an administration period (Day 1 to Day 48) (efficacy and safety evaluation period), and the third stage was a post-observation period (Day 49 to Day 63) (efficacy and safety evaluation period). The safety evaluation and efficacy evaluation were performed by multi-facility collaboration, placebo control, random allocation, double-blind trial, and parallel group comparison test.
(§2) The administration period of the trial drug is seven weeks which starts from the next day of the Week 0 visit to the day before the Week 7 visit, provided that the trial drug is not taken on the scheduled Week 3 visit.
Amount of change in blood hemoglobin value (Hb) from Week 0 at the end of administration
The mean of each administration group is used as a placebo group (μ1), a 250 mg group (μ2), a 500 mg group (μ3), a 1000 mg group (μ4), a 1500 mg group (μ5).
(§3) The blood hemoglobin value (Hb), the serum iron level, the serum ferritin value, the total iron-binding capacity (TIBC) and the transferrin saturation rate (TSAT), and the mean corpuscular volume (MCV) were each examined at the observation start date, Week 0, Week 3, Week 7, the end of administration and the consultation at nine weeks after Week 0; the hepcidin concentration (Hepcidin 25) and the serum soluble transferrin receptor concentration (sTfR) were each examined on Week 0, Week 3 and Week 7 and at the end of administration; and the C-terminal FGF23 value (cFGF23) and the intact FGF23 value (iFGF23) were each examined on Week 0 and Week 7 and at the end of administration.

[2] = tested on: patients with hypermenorrhea and/or patients with hypermenorrhea-associated gynecologic diseases (iron-deficiency anemia patients)
Procedure: as §1, §2, §3

[3] = 250 mg/day, 9 weeks after Week 0
[4] = 250 mg/day, End of administration
[5] = 500 mg/day, 9 weeks after Week 0
[6] = 500 mg/day, End of administration
[7] = 1000 mg/day, 9 weeks after Week 0
[8] = 1000 mg/day, End of administration
[9] = 1500 mg/day, 9 weeks after Week 0
[10] = 1500 mg/day, End of administration

## Ferric citrate [JTT-751]
[1]; 250 mg/day
  Hb measured value, Base line, Mean: 9.47 g/dL
  Hb measured value, End of administration, Mean: 11.72 g/dL
  Williams test, Mean of change amount from the baseline at the end of administration, Mean: 2.25 g/dL
  Hb change, End of administration, Mean: 2.25 g/dL
  Williams test, Mean of change amount from the baseline at the end of administration, JTT-751-placebo: 2.50 g/dL
[1]; [3]
  Hb, Median: 11.60 g/dL
[1]; [4]
  Hb, Median: 11.80 g/dL
[1]; 250 mg/day, Observation start date (before administration)
  Hb, Median: 9.55 g/dL
[1]; 250 mg/day, Week 0 (baseline)
  Hb, Median: 9.80 g/dL
[1]; 250 mg/day, Week 3
  Hb, Median: 10.75 g/dL
[1]; 250 mg/day, Week 7
  Hb, Median: 11.80 g/dL
[1]; 500 mg/day
  Hb measured value, Base line, Mean: 8.98 g/dL
  Hb measured value, End of administration, Mean: 11.71 g/dL
  Williams test, Mean of change amount from the baseline at the end of administration, Mean: 2.73 g/dL
  Hb change, End of administration, Mean: 2.73 g/dL
  Williams test, Mean of change amount from the baseline at the end of administration, JTT-751-placebo: 2.98 g/dL
[1]; [5]
  Hb, Median: 11.70 g/dL
[1]; [6]
  Hb, Median: 11.90 g/dL
[1]; 500 mg/day, Observation start date (before administration)
  Hb, Median: 9.30 g/dL
[1]; 500 mg/day, Week 0 (baseline)
  Hb, Median: 8.95 g/dL
[1]; 500 mg/day, Week 3
  Hb, Median: 10.10 g/dL
[1]; 500 mg/day, Week 7
  Hb, Median: 11.90 g/dL
[1]; 1000 mg/day
  Hb measured value, Base line, Mean: 9.66 g/dL
  Hb measured value, End of administration, Mean: 12.72 g/dL
  Williams test, Mean of change amount from the baseline at the end of administration, Mean: 3.05 g/dL
  Hb change, End of administration, Mean: 3.05 g/dL
  Williams test, Mean of change amount from the baseline at the end of administration, JTT-751-placebo: 3.30 g/dL
[1]; [7]
  Hb, Median: 12.70 g/dL
[1]; [8]
  Hb, Median: 12.90 g/dL
[1]; 1000 mg/day, Observation start date (before administration)
  Hb, Median: 9.90 g/dL
[1]; 1000 mg/day, Week 0 (baseline)
  Hb, Median: 9.80 g/dL
[1]; 1000 mg/day, Week 3
  Hb, Median: 11.80 g/dL
[1]; 1000 mg/day, Week 7
  Hb, Median: 12.90 g/dL
[1]; 1500 mg/day
  Hb measured value, Base line, Mean: 9.38 g/dL
  Hb measured value, End of administration, Mean: 12.75 g/dL
  Williams test, Mean of change amount from the baseline at the end of administration, Mean: 3.37 g/dL
  Hb change, End of administration, Mean: 3.37 g/dL
  Williams test, Mean of change amount from the baseline at the end of administration, JTT-751-placebo: 3.62 g/dL
[1]; [9]
  Hb, Median: 12.70 g/dL
[1]; [10]
  Hb, Median: 13.00 g/dL
[1]; 1500 mg/day, Observation start date (before administration)
  Hb, Median: 9.40 g/dL
[1]; 1500 mg/day, Week 0 (baseline)
  Hb, Median: 9.40 g/dL
[1]; 1500 mg/day, Week 3
  Hb, Median: 11.60 g/dL
[1]; 1500 mg/day, Week 7
  Hb, Median: 13.00 g/dL
[1]; 250-1500 mg/day
  blood hemoglobin value, dose dependence: increases along with the dose increase
[1]; Week 0, Week 3 and Week 7
  blood hemoglobin value, time-dependent change: increased along with the continuous administration
[1]; nine weeks after Week 0 (two weeks after completion of administration)
  blood hemoglobin value after completion of administration: did not decrease
[1]; regardless of the dose amount (250-1500 mg/day), end of administration
  blood hemoglobin value compared to the placebo administration group: significantly increase
[2]; [3]
  TSAT, profile from the baseline (value at Week 0), Mean: 4.29%
  TSAT, profile from the baseline (value at Week 0), Median: 3.85%
[2]; [4]
  TSAT, profile from the baseline (value at Week 0), Mean: 9.12%
  TSAT, profile from the baseline (value at Week 0), Median: 7.60%
[2]; 250 mg/day, Week 3
  TSAT, profile from the baseline (value at Week 0), Mean: 5.26%
  TSAT, profile from the baseline (value at Week 0), Median: 4.85%
[2]; 250 mg/day, Week 7
  TSAT, profile from the baseline (value at Week 0), Mean: 9.12%
  TSAT, profile from the baseline (value at Week 0), Median: 7.60%
[2]; [5]
  TSAT, profile from the baseline (value at Week 0), Mean: 7.27%
  TSAT, profile from the baseline (value at Week 0), Median: 5.90%
[2]; [6]
  TSAT, profile from the baseline (value at Week 0), Mean: 12.27%
  TSAT, profile from the baseline (value at Week 0), Median: 12.35%
[2]; 500 mg/day, Week 3
  TSAT, profile from the baseline (value at Week 0), Mean: 8.57%
  TSAT, profile from the baseline (value at Week 0), Median: 3.60%
[2]; 500 mg/day, Week 7
  TSAT, profile from the baseline (value at Week 0), Mean: 12.27%
  TSAT, profile from the baseline (value at Week 0), Median: 12.35%
[2]; [7]
  TSAT, profile from the baseline (value at Week 0), Mean: 12.42%
  TSAT, profile from the baseline (value at Week 0), Median: 12.60%
[2]; [8]
  TSAT, profile from the baseline (value at Week 0), Mean: 15.46%
  TSAT, profile from the baseline (value at Week 0), Median: 16.20%
[2]; 1000 mg/day, Week 3
  TSAT, profile from the baseline (value at Week 0), Mean: 15.56%
  TSAT, profile from the baseline (value at Week 0), Median: 9.90%
[2]; 1000 mg/day, Week 7
  TSAT, profile from the baseline (value at Week 0), Mean: 15.46%
  TSAT, profile from the baseline (value at Week 0), Median: 16.20%
[2]; [9]
  TSAT, profile from the baseline (value at Week 0), Mean: 11.41%
  TSAT, profile from the baseline (value at Week 0), Median: 9.95%
[2]; [10]
  TSAT, profile from the baseline (value at Week 0), Mean: 16.70%
  TSAT, profile from the baseline (value at Week 0), Median: 16.00%
[2]; 1500 mg/day, Week 3
  TSAT, profile from the baseline (value at Week 0), Mean: 15.59%
  TSAT, profile from the baseline (value at Week 0), Median: 7.90%
[2]; 1500 mg/day, Week 7
  TSAT, profile from the baseline (value at Week 0), Mean: 16.70%
  TSAT, profile from the baseline (value at Week 0), Median: 16.00%
